# Where “and” joins values, the source holds several entries; their conditions need not be identical. Equal entries are not always repeated.
# System: 931267-113-T-J1-PDC multicell spheroid viability
# Assay: Anticancer human tumor 931267-113-T-J1-PDC patient-derived colon adenocarcinoma cell line growth inhibition [PI3K]
# Conditions: for viability, T/C: stronger effect = lower value
# Excerpt: Combinatorial screen of targeted agents with the PI3K inhibitors inavolisib, alpelisib, duvelisib, and copanlisib in multi-cell type tumor spheroids
# A high-throughput screen of multi-cell type tumor spheroids was designed to identify active combinations of targeted small molecules and PI3K pathway inhibitors. Complex spheroids include a stromal component modeled by human endothelial cells (HUVEC) and fibroblasts modeled by human mesenchymal stem cells (MSCs). The concentration ranges selected for each drug and investigational agent were based upon clinically achievable concentrations if the clinical Cmax of the agent was known.
# Compounds. The drugs and investigational agents: inavolisib (NSC800729), alpelisib (NSC765974), duvelisib (NSC772469), copanlisib (NSC816437), ipatasertib (NSC767898), afuresertib (NSC778305), talazoparib (NSC767125), sapanisertib (NSC764658), selumetinib (NSC741078), tovorafenib (DAY101, NSC766906), vemurafenib (NSC761431), ravoxertinib (NSC781343), sotorasib (NSC818433), MRTX1133 (NSC 836407), abemaciclib (NSC 768073), palbociclib (NSC758247), venetoclax (NSC 766270), SY5609 (NSC837396), enzalutamide (NSC755605), and darolutamide (NSC825331), were obtained from the National Cancer Institute (NCI) Developmental Therapeutics Program Chemical Repository. The FDA-approved anticancer drug set is available from the NCI Developmental Therapeutics Program. […] The stock solutions were prepared in dimethyl sulfoxide (DMSO, Sigma-Aldrich, St. Louis, MO, cat. D2650) at 800-fold the tested concentration and stored at -70 degrees C prior to their use. All drugs and investigational agents were tested over a range starting from a high concentration at or near the clinical Cmax and decreasing in half-log increments. If the clinical Cmax for an agent had not been determined, the highest concentration tested was 10 microM.
# Cell Culture. All cells were maintained in an incubator at 37 degrees C and 5% CO2 with 95% humidity. The PDC lines were cultured according to standard operating procedures established by the NCI PDMR (https://pdmr.cancer.gov/sops/default.htm). All PDCs were thawed and cultured in Matrigel-coated flasks prepared with a working solution of 1X Ham's F-12 nutrient mix, without supplementation (Invitrogen, Waltham, MA, cat. 11765054), 100 U/mL penicillin-streptomycin (Invitrogen, cat. 15140122), and 2.5% Matrigel (Corning Inc., Corning, NY, cat. 354248) for the first three passages. The 354836-022-R-J1-PDC, 475296-252-R-J1-PDC, and 997726-040-R-J2-PDC lines were cultured in 6A media, which includes advanced DMEM/F-12 (Thermo Fisher Scientific, cat. 12634028), 10 mM HEPES (Thermo Fisher Scientific, cat. 15630080), 1X GlutaMAX supplement (Thermo Fisher Scientific, cat. 35050061), 0.1 mg/mL primocin (InvivoGen, San Diego, CA, cat. ant-pm-2), 10% defined fetal bovine serum, heat inactivated (HyClone Laboratories Inc., Logan, UT, cat. SH30070.03HI), 50% L-WRN conditioned media (ATCC, cat. CRL-3276), 1.25 mM N-Acetyl-L-cysteine (Sigma-Aldrich, cat. A9165), 10 mM nicotinamide (Sigma-Aldrich, cat. N0636), 1X B-27 supplement (Thermo Fisher Scientific, cat. 17504044), 1X N-2 supplement (Thermo Fisher Scientific, cat. 17502048), and 10 microM Y-27632 dihydrochloride (Tocris Bioscience, Bristol, United Kingdom, cat. 1254). The 624824-186-R-J2-PDC line was cultured in 6C/Colon 1B media, which includes all 6A media components plus 50 ng/mL human EGF recombinant protein (Thermo Fisher Scientific, cat. PHG0311). […]
# [1] = curve of first compound, second compound 0.00316 µM
# [2] = curve of first compound, second compound 0.01 µM
# [3] = curve of first compound, second compound 0.0316 µM
# [4] = curve of first compound, second compound 0.1 µM
# [5] = curve of first compound, second compound 0.316 µM
# [6] = curve of first compound, second compound 1 µM
# [7] = second compound 0.00316 µM, first compound 0.0316 µM
# [8] = second compound 0.00316 µM, first compound 0.1 µM
# [9] = second compound 0.01 µM, first compound 0.0316 µM
# [10] = second compound 0.01 µM, first compound 0.1 µM
# [11] = second compound 0.0316 µM, first compound 0.0316 µM
# [12] = second compound 0.0316 µM, first compound 0.1 µM
# [13] = second compound 0.1 µM, first compound 0.0316 µM
# [14] = second compound 0.1 µM, first compound 0.1 µM
# [15] = second compound 0.316 µM, first compound 0.0316 µM
# [16] = second compound 0.316 µM, first compound 0.1 µM
# [17] = second compound 1 µM, first compound 0.0316 µM
# [18] = second compound 1 µM, first compound 0.1 µM
# 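Further: viability read 7 days after compound addition.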
smiles,measurement,setting,value
Cn1ncnc1[C@H]1c2n[nH]c(=O)c3cc(F)cc(c23)N[C@@H]1c1ccc(F)cc1 + COc1c(OCCCN2CCOCC2)ccc2c3n(c(=NC(=O)c4cnc(N)nc4)nc12)CCN3,IC50,[1],> 100 nM
same,IC50,[2],> 100 nM
same,IC50,[3],> 100 nM
same,IC50,[4],> 100 nM
same,IC50,[5],1.13 nM
same,IC50,[6],< 0.316 nM
same,"viability, T/C","second compound 0.00316 µM, first compound 0.000316 µM",103%
same,"viability, T/C","second compound 0.00316 µM, first compound 0.001 µM",107%
same,"viability, T/C","second compound 0.00316 µM, first compound 0.00316 µM",107%
same,"viability, T/C","second compound 0.00316 µM, first compound 0.01 µM",98.7%
same,"viability, T/C",[7],106%
same,"viability, T/C",[8],93.9%
same,"viability, T/C","second compound 0.01 µM, first compound 0.000316 µM",103%
same,"viability, T/C","second compound 0.01 µM, first compound 0.001 µM",97.9%
same,"viability, T/C","second compound 0.01 µM, first compound 0.00316 µM",94.2%
same,"viability, T/C","second compound 0.01 µM, first compound 0.01 µM",89.2%
same,"viability, T/C",[9],93%
same,"viability, T/C",[10],91.3%
same,"viability, T/C","second compound 0.0316 µM, first compound 0.000316 µM",85.2%
same,"viability, T/C","second compound 0.0316 µM, first compound 0.001 µM",88.9%
same,"viability, T/C","second compound 0.0316 µM, first compound 0.00316 µM",82.1%
same,"viability, T/C","second compound 0.0316 µM, first compound 0.01 µM",83%
same,"viability, T/C",[11],81.8%
same,"viability, T/C",[12],79%
same,"viability, T/C","second compound 0.1 µM, first compound 0.000316 µM",70.2%
same,"viability, T/C","second compound 0.1 µM, first compound 0.001 µM",68.5%
same,"viability, T/C","second compound 0.1 µM, first compound 0.00316 µM",70.7%
same,"viability, T/C","second compound 0.1 µM, first compound 0.01 µM",66%
same,"viability, T/C",[13],69%
same,"viability, T/C",[14],61.3%
same,"viability, T/C","second compound 0.316 µM, first compound 0.000316 µM",54.3%
same,"viability, T/C","second compound 0.316 µM, first compound 0.001 µM",52.5%
same,"viability, T/C","second compound 0.316 µM, first compound 0.00316 µM",46.1%
same,"viability, T/C","second compound 0.316 µM, first compound 0.01 µM",43.4%
same,"viability, T/C",[15],46.4%
same,"viability, T/C",[16],43.4%
same,"viability, T/C","second compound 1 µM, first compound 0.000316 µM",33.3%
same,"viability, T/C","second compound 1 µM, first compound 0.001 µM",34.1%
same,"viability, T/C","second compound 1 µM, first compound 0.00316 µM",30.9%
same,"viability, T/C","second compound 1 µM, first compound 0.01 µM",34.4%
same,"viability, T/C",[17],36.6%
same,"viability, T/C",[18],30.3%
CC(C)n1nc(-c2ccc3oc(N)nc3c2)c2c(N)ncnc21,"viability, T/C",compound 0.000316 µM,101% [middle of 4 runs]
same,"viability, T/C",compound 0.001 µM,88.2% and 95% (2×) and 92.1%
same,"viability, T/C",compound 0.00316 µM,96.8% [middle of 4 runs]
same,"viability, T/C",compound 0.01 µM,96.1% [middle of 4 runs]
same,"viability, T/C",compound 0.0316 µM,81.6% [middle of 4 runs]
same,"viability, T/C",compound 0.1 µM,52.2% [middle of 4 runs]
same,IC50,curve of compound,84.8 nM and 92.4 nM and > 100 nM
CC(C)NCC(C(=O)N1CCN(c2ncnc3c2C(C)CC3O)CC1)c1ccc(Cl)cc1 (stereo unspecified) + COc1c(OCCCN2CCOCC2)ccc2c3n(c(=NC(=O)c4cnc(N)nc4)nc12)CCN3,IC50,[1],> 10000 nM
same,IC50,[2],> 10000 nM
same,IC50,[3],> 10000 nM
same,IC50,[4],> 10000 nM
same,IC50,[5],< 31.6 nM
same,IC50,[6],< 31.6 nM
same,"viability, T/C",[7],94.2%
same,"viability, T/C",[8],96.2%
same,"viability, T/C","second compound 0.00316 µM, first compound 0.316 µM",94.3%
same,"viability, T/C","second compound 0.00316 µM, first compound 1 µM",94.7%
same,"viability, T/C","second compound 0.00316 µM, first compound 3.16 µM",95%
same,"viability, T/C","second compound 0.00316 µM, first compound 10 µM",71.1%
same,"viability, T/C",[9],96.3%
same,"viability, T/C",[10],93.7%
same,"viability, T/C","second compound 0.01 µM, first compound 0.316 µM",93.2%
same,"viability, T/C","second compound 0.01 µM, first compound 1 µM",91.2%
same,"viability, T/C","second compound 0.01 µM, first compound 3.16 µM",97.8%
same,"viability, T/C","second compound 0.01 µM, first compound 10 µM",71.4%
same,"viability, T/C",[11],84.9%
same,"viability, T/C",[12],84.9%
same,"viability, T/C","second compound 0.0316 µM, first compound 0.316 µM",81.8%
same,"viability, T/C","second compound 0.0316 µM, first compound 1 µM",81.6%
same,"viability, T/C","second compound 0.0316 µM, first compound 3.16 µM",83.3%
same,"viability, T/C","second compound 0.0316 µM, first compound 10 µM",65.8%
same,"viability, T/C",[13],67.8%
same,"viability, T/C",[14],71.1%
same,"viability, T/C","second compound 0.1 µM, first compound 0.316 µM",71.6%
same,"viability, T/C","second compound 0.1 µM, first compound 1 µM",69.7%
same,"viability, T/C","second compound 0.1 µM, first compound 3.16 µM",67.5%
same,"viability, T/C","second compound 0.1 µM, first compound 10 µM",55.7%
same,"viability, T/C",[15],43.6%
same,"viability, T/C",[16],44.8%
same,"viability, T/C","second compound 0.316 µM, first compound 0.316 µM",44%
same,"viability, T/C","second compound 0.316 µM, first compound 1 µM",47.7%
same,"viability, T/C","second compound 0.316 µM, first compound 3.16 µM",49.2%
same,"viability, T/C","second compound 0.316 µM, first compound 10 µM",44.1%
same,"viability, T/C",[17],32.9%
same,"viability, T/C",[18],30.8%
same,"viability, T/C","second compound 1 µM, first compound 0.316 µM",35.8%
same,"viability, T/C","second compound 1 µM, first compound 1 µM",31%
same,"viability, T/C","second compound 1 µM, first compound 3.16 µM",42%
same,"viability, T/C","second compound 1 µM, first compound 10 µM",33.3%

# Source: PubChem BioAssay AID1963970 (Molecular Pharmacology Branch, DTP, NCI, 2024)
